# Assay results from paper PMC5218480 (PLoS ONE, 2017).
# Tested on: MV-4-11 cells
# Assay: Gene expression microarray analysis (Affymetrix PrimeView) and GSEA
# Format: cell-based, human
# Parameters: RFU PODN (11730768_x_at) / Fold change /veh PODN (11730768_x_at) / RFU LINC00158 (11744669_a_at) / Fold change /veh LINC00158 (11744669_a_at) / RFU DUSP10 (11751237_a_at) / Fold change /veh DUSP10 (11751237_a_at) / RFU ID3 (11757404_x_at) / Fold change /veh ID3 (11757404_x_at) / RFU PLEKHG5 (11737974_s_at) / Fold change /veh PLEKHG5 (11737974_s_at) / RFU LRRC4B (11730491_at) / Fold change /veh LRRC4B (11730491_at) / RFU GIMAP4 (11747438_a_at) / Fold change /veh GIMAP4 (11747438_a_at) / RFU KRT8 (11758183_x_at) / Fold change /veh KRT8 (11758183_x_at) / RFU CNN1 (11734310_a_at) / Fold change /veh CNN1 (11734310_a_at) / RFU VPS37D (11726825_at) / Fold change /veh VPS37D (11726825_at) / RFU C10orf10 (11716522_x_at) / Fold change /veh C10orf10 (11716522_x_at) / RFU KIR2DL2 /// KIR2DL4 /// KIR2DL5A /// KIR2DL5B /// KIR2DS1 /// KIR2DS2 /// KIR2DS3 /// KIR2DS4 /// KIR3DL3 /// KIR3DL3 /// KIR3DS1 (11738374_at) / Fold change /veh KIR2DL2 /// KIR2DL4 /// KIR2DL5A /// KIR2DL5B /// KIR2DS1 /// KIR2DS2 /// KIR2DS3 /// KIR2DS4 /// KIR3DL3 /// KIR3DL3 /// KIR3DS1 (11738374_at) / RFU C1QL1 (11718748_at) / Fold change /veh C1QL1 (11718748_at) / RFU TMPRSS4 (11747572_a_at) / Fold change /veh TMPRSS4 (11747572_a_at) / RFU HAMP (11756126_x_at) / Fold change /veh HAMP (11756126_x_at) / RFU RNFT2 (11725882_a_at) / Fold change /veh RNFT2 (11725882_a_at) / RFU NR4A2 (11747474_a_at) / Fold change /veh NR4A2 (11747474_a_at) / RFU ABCC12 (11746883_a_at) / Fold change /veh ABCC12 (11746883_a_at) / RFU TMEM136 (11760407_x_at) / Fold change /veh TMEM136 (11760407_x_at) / RFU CLDN22 /// WWC2 (11732394_at) / Fold change /veh CLDN22 /// WWC2 (11732394_at) / RFU HLA-DPB1 (11760878_x_at) / Fold change /veh HLA-DPB1 (11760878_x_at) / RFU SPINT1 (11716480_a_at) / Fold change /veh SPINT1 (11716480_a_at) / RFU GAP43 (11754022_s_at) / Fold change /veh GAP43 (11754022_s_at) / RFU A4GNT (11735810_at) / Fold change /veh A4GNT (11735810_at) / RFU PRB3 (11715151_x_at) / Fold change /veh PRB3 (11715151_x_at) / RFU TUBB4B (11761932_at) / Fold change /veh TUBB4B (11761932_at) / RFU CAPN14 (11732068_a_at) / Fold change /veh CAPN14 (11732068_a_at) / RFU TMCC2 (11721928_a_at) / Fold change /veh TMCC2 (11721928_a_at) / RFU IRGQ (11745062_a_at) / Fold change /veh IRGQ (11745062_a_at) / RFU FAM174B (11720279_a_at) / Fold change /veh FAM174B (11720279_a_at) / RFU TMPRSS4 (11748680_a_at) / Fold change /veh TMPRSS4 (11748680_a_at) / RFU FAM212B (11763350_a_at) / Fold change /veh FAM212B (11763350_a_at) / RFU PLEKHG5 (11743358_a_at) / Fold change /veh PLEKHG5 (11743358_a_at) / RFU ZSCAN30 (11745921_a_at) / Fold change /veh ZSCAN30 (11745921_a_at) / RFU CMKLR1 (11741424_a_at) / Fold change /veh CMKLR1 (11741424_a_at) / RFU LOC101060620 /// MAPK8IP1 (11723275_at) / Fold change /veh LOC101060620 /// MAPK8IP1 (11723275_at) / RFU SPTSSB (11747773_x_at) / Fold change /veh SPTSSB (11747773_x_at) / RFU PRSS12 (11739890_at) / Fold change /veh PRSS12 (11739890_at) / RFU BIN1 (11741810_x_at) / Fold change /veh BIN1 (11741810_x_at) / RFU WNT11 (11732464_a_at) / Fold change /veh WNT11 (11732464_a_at) / RFU C10orf10 (11716521_a_at) / Fold change /veh C10orf10 (11716521_a_at) / RFU C5orf56 (11738089_at) / Fold change /veh C5orf56 (11738089_at) / RFU CYB561 (11721691_x_at) / Fold change /veh CYB561 (11721691_x_at) / RFU ANKRD19P (11752326_a_at) / Fold change /veh ANKRD19P (11752326_a_at) / RFU OR2T12 /// OR2T33 /// OR2T8 (11738714_s_at) / Fold change /veh OR2T12 /// OR2T33 /// OR2T8 (11738714_s_at) / RFU VCAN (11748164_a_at) / Fold change /veh VCAN (11748164_a_at) / RFU JSRP1 (11732532_at) / Fold change /veh JSRP1 (11732532_at) / RFU KRTAP10-11 (11738290_x_at) / Fold change /veh KRTAP10-11 (11738290_x_at) / RFU MYO3A (11730013_a_at) / Fold change /veh MYO3A (11730013_a_at) / RFU EBF3 (11725865_a_at) / Fold change /veh EBF3 (11725865_a_at) / RFU CAMK2N1 (11719241_x_at) / Fold change /veh CAMK2N1 (11719241_x_at) / RFU C5orf56 (11738088_a_at) / Fold change /veh C5orf56 (11738088_a_at) / RFU OLFML3 (11715873_a_at) / Fold change /veh OLFML3 (11715873_a_at) / RFU LOC100653217 /// NTM (11731650_a_at) / Fold change /veh LOC100653217 /// NTM (11731650_a_at) / RFU MAPK11 (11762145_a_at) / Fold change /veh MAPK11 (11762145_a_at) / RFU FIZ1 (11724087_x_at) / Fold change /veh FIZ1 (11724087_x_at) / RFU OASL (11726364_x_at) / Fold change /veh OASL (11726364_x_at) / RFU SOX15 (11748057_x_at) / Fold change /veh SOX15 (11748057_x_at) / RFU CD79A (11719716_a_at) / Fold change /veh CD79A (11719716_a_at) / RFU HIST1H1D (11736915_at) / Fold change /veh HIST1H1D (11736915_at) / RFU CASKIN2 (11723855_a_at) / Fold change /veh CASKIN2 (11723855_a_at) / RFU LOC730098 (11760151_x_at) / Fold change /veh LOC730098 (11760151_x_at) / RFU OR4N2 (11742367_at) / Fold change /veh OR4N2 (11742367_at) / RFU PRRT2 (11749266_a_at) / Fold change /veh PRRT2 (11749266_a_at) / RFU SNX32 (11753110_a_at) / Fold change /veh SNX32 (11753110_a_at) / RFU CDHR5 (11726645_a_at) / Fold change /veh CDHR5 (11726645_a_at) / RFU RCAN1 (11760418_a_at) / Fold change /veh RCAN1 (11760418_a_at) / RFU FAM167A (11723789_a_at) / Fold change /veh FAM167A (11723789_a_at) / RFU FAM26E (11764081_at) / Fold change /veh FAM26E (11764081_at) / RFU ISYNA1 (11749810_s_at) / Fold change /veh ISYNA1 (11749810_s_at) / RFU ACY1 (11761880_at) / Fold change /veh ACY1 (11761880_at) / RFU 11764098_at / Fold change /veh 11764098_at / RFU SAMD14 (11745864_x_at) / Fold change /veh SAMD14 (11745864_x_at) / RFU NPB (11741838_a_at) / Fold change /veh NPB (11741838_a_at) / RFU TMPRSS6 (11731388_a_at) / Fold change /veh TMPRSS6 (11731388_a_at) / RFU KRTAP10-2 (11738614_at) / Fold change /veh KRTAP10-2 (11738614_at) / RFU ARHGAP8 /// PRR5-ARHGAP8 (11727945_x_at) / Fold change /veh ARHGAP8 /// PRR5-ARHGAP8 (11727945_x_at) / RFU KRTAP5-7 /// NADSYN1 (11734609_at) / Fold change /veh KRTAP5-7 /// NADSYN1 (11734609_at) / RFU RASL12 (11751679_a_at) / Fold change /veh RASL12 (11751679_a_at) / RFU CDKN2B (11736163_a_at) / Fold change /veh CDKN2B (11736163_a_at) / RFU PRF1 (11729649_at) / Fold change /veh PRF1 (11729649_at) / RFU, ZNF638 /// ZNF638-IT1 / Fold change vs veh, ZNF638 /// ZNF638-IT1 / RFU, PANK3 / Fold change vs veh, PANK3 / RFU, SH3YL1 / Fold change vs veh, SH3YL1 / RFU, ZEB2 / Fold change vs veh, ZEB2 / RFU, NRIP1 / Fold change vs veh, NRIP1 / RFU, PTTG1IP / Fold change vs veh, PTTG1IP / RFU, CAPN2 / Fold change vs veh, CAPN2 / RFU, MED14 / Fold change vs veh, MED14 / RFU, SNORA58 / Fold change vs veh, SNORA58 / RFU, C1orf63 / Fold change vs veh, C1orf63 / RFU, LRRFIP1 / Fold change vs veh, LRRFIP1 / RFU, NDUFAF7 / Fold change vs veh, NDUFAF7 / RFU, SLC12A2 / Fold change vs veh, SLC12A2 / RFU, IBTK / Fold change vs veh, IBTK / RFU, ESF1 / Fold change vs veh, ESF1 / Fold change vs veh, TMEM50B / RFU, TAOK1 / Fold change vs veh, TAOK1 / RFU, ACBD3 / Fold change vs veh, ACBD3 / RFU, TMA16 / Fold change vs veh, TMA16 / RFU, RWDD3 / Fold change vs veh, RWDD3 / RFU, BCAT1 / Fold change vs veh, BCAT1 / RFU, EDEM3 / Fold change vs veh, EDEM3 / RFU, TMEM33 / Fold change vs veh, TMEM33 / RFU, WDR75 / Fold change vs veh, WDR75 / RFU, AHCTF1 / Fold change vs veh, AHCTF1 / RFU, TFRC / Fold change vs veh, TFRC / RFU, ZDHHC17 / Fold change vs veh, ZDHHC17 / RFU, NOM1 / Fold change vs veh, NOM1 / RFU, ARL8B / Fold change vs veh, ARL8B / RFU, ZBTB11 / Fold change vs veh, ZBTB11 / RFU, TAMM41 / Fold change vs veh, TAMM41 / RFU, KIAA1704 /// LOC100996395 / Fold change vs veh, KIAA1704 /// LOC100996395 / RFU, ING1 / Fold change vs veh, ING1 / RFU, TRMT61B / Fold change vs veh, TRMT61B / RFU, FUBP3 / Fold change vs veh, FUBP3 / RFU, TP53 / Fold change vs veh, TP53 / RFU, TNKS2 / Fold change vs veh, TNKS2 / RFU, ZFP14 / Fold change vs veh, ZFP14 / RFU, ACTR2 / Fold change vs veh, ACTR2 / RFU, PPP3R1 / Fold change vs veh, PPP3R1 / RFU, PIK3R1 / Fold change vs veh, PIK3R1 / RFU, HNRNPA1 / Fold change vs veh, HNRNPA1 / RFU, RNF170 / Fold change vs veh, RNF170 / RFU, ZNF28 / Fold change vs veh, ZNF28 / RFU, RNGTT / Fold change vs veh, RNGTT / RFU, OGT / Fold change vs veh, OGT / RFU, BRD1 / Fold change vs veh, BRD1 / RFU, MARS / Fold change vs veh, MARS / RFU, ZNF655 / Fold change vs veh, ZNF655 / RFU, FAHD1 / Fold change vs veh, FAHD1 / RFU, BDP1 / Fold change vs veh, BDP1 / RFU, LRRCC1 / Fold change vs veh, LRRCC1 / RFU, ARID1A / Fold change vs veh, ARID1A / RFU, ZNF146 / Fold change vs veh, ZNF146 / RFU, ZNF330 / Fold change vs veh, ZNF330 / RFU, GPN3 / Fold change vs veh, GPN3 / RFU, C9orf123 / Fold change vs veh, C9orf123 / RFU, N4BP2L2 / Fold change vs veh, N4BP2L2 / RFU, ARFIP1 / Fold change vs veh, ARFIP1 / RFU, FAM179B / Fold change vs veh, FAM179B / RFU, BCL10 / Fold change vs veh, BCL10 / RFU, UHRF1BP1L / Fold change vs veh, UHRF1BP1L / RFU, BET1 / Fold change vs veh, BET1 / RFU, CNOT2 / Fold change vs veh, CNOT2 / RFU, ZNF268 / Fold change vs veh, ZNF268 / Fold change vs veh, ZNF507 / RFU, DGCR2 / Fold change vs veh, DGCR2 / RFU, WDSUB1 / Fold change vs veh, WDSUB1 / Fold change vs veh, HSP90B1 /// MIR3652 / RFU, ADSS / Fold change vs veh, ADSS / RFU, GK / Fold change vs veh, GK / RFU, ZNF148 / Fold change vs veh, ZNF148 / RFU, TAF9 / Fold change vs veh, TAF9 / RFU, SLC1A5 / Fold change vs veh, SLC1A5 / RFU, SLMO2 / Fold change vs veh, SLMO2 / RFU, ABCC4 / Fold change vs veh, ABCC4 / RFU, LOC101060439 /// RAP1B / Fold change vs veh, LOC101060439 /// RAP1B / RFU, RFX7 / Fold change vs veh, RFX7 / RFU, GTPBP10 / Fold change vs veh, GTPBP10 / RFU, CNEP1R1 / Fold change vs veh, CNEP1R1 / RFU, BIVM-ERCC5 /// ERCC5 / Fold change vs veh, BIVM-ERCC5 /// ERCC5 / RFU, ILF3 / Fold change vs veh, ILF3 / RFU 11762660_at / Fold change /veh 11762660_at / RFU VCAN (11757783_s_at) / Fold change /veh VCAN (11757783_s_at) / RFU DDX43 (11728927_at) / Fold change /veh DDX43 (11728927_at) / RFU KRT8 (11758188_x_at) / Fold change /veh KRT8 (11758188_x_at) / RFU NKD1 (11759106_at) / Fold change /veh NKD1 (11759106_at) / RFU SRD5A1 (11742802_a_at) / Fold change /veh SRD5A1 (11742802_a_at) / RFU TPSAB1 /// TPSB2 (11721975_s_at) / Fold change /veh TPSAB1 /// TPSB2 (11721975_s_at) / RFU GSTM3 (11746129_a_at) / Fold change /veh GSTM3 (11746129_a_at) / RFU IL23R (11737362_x_at) / Fold change /veh IL23R (11737362_x_at) / RFU TMEM51 (11727254_a_at) / Fold change /veh TMEM51 (11727254_a_at) / RFU PIWIL2 (11732686_x_at) / Fold change /veh PIWIL2 (11732686_x_at) / RFU ORM1 (11744905_x_at) / Fold change /veh ORM1 (11744905_x_at) / RFU CCDC152 (11743942_at) / Fold change /veh CCDC152 (11743942_at) / RFU ECM1 (11717891_a_at) / Fold change /veh ECM1 (11717891_a_at) / RFU IL23R (11748794_a_at) / Fold change /veh IL23R (11748794_a_at) / RFU TNFAIP8L3 (11732012_x_at) / Fold change /veh TNFAIP8L3 (11732012_x_at) / RFU MBOAT4 (11741988_at) / Fold change /veh MBOAT4 (11741988_at) / RFU 11764193_at / Fold change /veh 11764193_at / RFU TMEM53 (11763286_at) / Fold change /veh TMEM53 (11763286_at) / RFU MAGEB2 (11727129_at) / Fold change /veh MAGEB2 (11727129_at) / RFU TMEM200A (11744735_a_at) / Fold change /veh TMEM200A (11744735_a_at) / RFU CCDC152 (11751479_a_at) / Fold change /veh CCDC152 (11751479_a_at) / RFU FAM211A (11726209_a_at) / Fold change /veh FAM211A (11726209_a_at) / RFU RGS16 (11746705_a_at) / Fold change /veh RGS16 (11746705_a_at) / RFU VCAN (11755009_s_at) / Fold change /veh VCAN (11755009_s_at) / RFU RHOB (11743442_s_at) / Fold change /veh RHOB (11743442_s_at) / RFU RGS16 (11720943_a_at) / Fold change /veh RGS16 (11720943_a_at) / RFU RGS16 (11720944_at) / Fold change /veh RGS16 (11720944_at) / RFU, VPS4B / Fold change vs veh, VPS4B / RFU, CREB1 / Fold change vs veh, CREB1 / RFU, DNAJC13 / Fold change vs veh, DNAJC13 / RFU, GNAQ / Fold change vs veh, GNAQ / RFU, CDK5R1 / Fold change vs veh, CDK5R1 / RFU, ZRANB3 / Fold change vs veh, ZRANB3 / RFU, CUL4A / Fold change vs veh, CUL4A / RFU, CCNY / Fold change vs veh, CCNY / RFU, UFL1 / Fold change vs veh, UFL1 / RFU, COG3 / Fold change vs veh, COG3 / RFU, DIAPH2 / Fold change vs veh, DIAPH2 / RFU, SKA2 / Fold change vs veh, SKA2 / RFU, AFF3 / Fold change vs veh, AFF3 / RFU, LMF1 / Fold change vs veh, LMF1 / RFU, IPO11 / Fold change vs veh, IPO11 / RFU, DFFB / Fold change vs veh, DFFB / RFU, FOXP1 / Fold change vs veh, FOXP1 / RFU, CARD8 / Fold change vs veh, CARD8 / RFU, STRN3 / Fold change vs veh, STRN3 / RFU, ADK / Fold change vs veh, ADK / RFU, RASSF2 / Fold change vs veh, RASSF2 / RFU, WIPF1 / Fold change vs veh, WIPF1 / RFU, LARP1B / Fold change vs veh, LARP1B / RFU, RASA1 / Fold change vs veh, RASA1 / RFU, RB1 / Fold change vs veh, RB1 / RFU, PPFIA1 / Fold change vs veh, PPFIA1 / RFU, MAT2A / Fold change vs veh, MAT2A / RFU, CCT5 / Fold change vs veh, CCT5 / RFU, WDR92 / Fold change vs veh, WDR92 / RFU, CUX1 / Fold change vs veh, CUX1 / RFU, TTC7A / Fold change vs veh, TTC7A / RFU, TMEM135 / Fold change vs veh, TMEM135 / RFU, DEPTOR / Fold change vs veh, DEPTOR / RFU, CPM / Fold change vs veh, CPM / RFU, DNAJB6 / Fold change vs veh, DNAJB6 / RFU, CACNA2D3 / Fold change vs veh, CACNA2D3 / RFU, DTX4 / Fold change vs veh, DTX4 / RFU, TFCP2 / Fold change vs veh, TFCP2 / RFU, GMCL1 /// GMCL1P1 / Fold change vs veh, GMCL1 /// GMCL1P1 / RFU, AEBP2 / Fold change vs veh, AEBP2 / RFU, SNHG1 /// SNORD22 /// SNORD25 /// SNORD26 /// SNORD27 /// SNORD28 /// SNORD29 /// SNORD31 / Fold change vs veh, SNHG1 /// SNORD22 /// SNORD25 /// SNORD26 /// SNORD27 /// SNORD28 /// SNORD29 /// SNORD31 / Fold change (Aza/veh), C12orf56 (ProbeSet 11735607_a_at) / Fold change (ACY-1035/veh), C12orf56 (ProbeSet 11735607_a_at) / Fold change (Aza/veh), FGFR1OP (ProbeSet 11751329_s_at) / Fold change (ACY-1035/veh), FGFR1OP (ProbeSet 11751329_s_at) / Fold change (Aza/veh), VPS36 (ProbeSet 11739960_a_at) / Fold change (ACY-1035/veh), VPS36 (ProbeSet 11739960_a_at) / RFU SYPL1 (11715823_x_at) / Fold change /veh SYPL1 (11715823_x_at) / RFU IGFBP7 (11715501_s_at) / Fold change /veh IGFBP7 (11715501_s_at) / RFU REEP3 (11722064_at) / Fold change /veh REEP3 (11722064_at) / RFU IGLL1 (11728026_x_at) / Fold change /veh IGLL1 (11728026_x_at): dose or concentration left out as unconfirmed
# Conditions: MV-4-11 cells, 48 hours
compound,measurement,value
Nc1ncn([C@@H]2O[C@H](CO)[C@@H](O)[C@H]2O)c(=O)n1 [azacitidine],Fold change /veh MAPK11 (11762145_a_at),1.03
